Data from patent US20180133221A1, “ADMINISTRATION OF UBIQUITIN-ACTIVATING ENZYME INHIBITOR AND CHEMOTHERAPEUTIC AGENTS” (Millennium Pharmaceuticals, Inc., priority 2014, published 2018).
Where two headings read alike, the source gives them in different places.

Columns and labels:
[1] = system: CTG-0256 human ovarian xenograft; test: CTG-0256 xenograft model, Compound 1 and carboplatin; type: in vivo, Mus musculus/nu/nu mice; conditions: for Volume Tumor Day 14: in mm³ (unit assumed)
Text: The CTG-0256 model of human ovarian xenograft model was established from a patient-derived tumor collected during surgery at primary site from a person with ovarian cancer (serous adenocarcinoma with resistant response to carboplatin or paclitaxel). CTG-0256 tumor fragments (approximately 2×2×3 mm^3) were implanted into the subcutaneous space in the right dorsal flank of female Mus musculus/nu/nu mice (age 6-9 weeks, Harlan Laboratories, Madison, Wis.) using a 13-gauge trocar. When the mean tumor volume reached approximately 150 mm^3, the animals were randomized into 7 treatment groups (n=7/group).
Carboplatin (Teva Pharmaceuticals) is formulated in 0.9% saline and administered by IP injection once weekly (QW) at 25, 50, 60, and 75 mg/kg. The once weekly schedule is also described as every 7 days (Q7D).
(§1) Compound 1 [((1R,2R,3S,4R)-2,3-dihydroxy-4-(2-(3-(trifluoromethylthio)-phenyl)pyrazolo[1,5-a]pyrimidin-7-ylamino)cyclopentyl)methyl sulfamate] is formulated in 10-20% HPbCD in sterile water and administered intravenously (IV) or subcutaneously (SC) on a BIW (twice/week schedule; Monday and Thursday or Tuesday and Friday) for either 2-4 weeks.
(§2) Tumors were measured twice weekly using vernier calipers. Tumor volumes were calculated using the standard formula V=W^2×L/2,). When mean tumor volumes reached approximately 200 mm^3 for PHTX-24C, 220 mm^3 for PHTX-Lu132, 150 mm^3 for CTG-0256, 260 mm^3 for CTG-0486, 185 mm^3 for PHTX-17C, 260 mm^3 for CTG-0165, 150 mm^3 for PHTX-14B in the study of Compound 1 and paclitaxel, 180 mm^3 for PHTX-14B in the study of Compound 1 and docetaxel, 200 mm^3 for SKOV-3, 220 mm^3 for PHTX-02B in the study of Compound 1 and docetaxel, 250 mm^3 for PHTX-02B in the study of Compound 1 and paclitaxel, 195 mm^3 for CTG-0159, 180 mm^3 for CTG-0012 or 150 mm^3 for Calu-6, mice were randomized into groups of n=5-7/arm as described in the tables below, and injected with vehicle, Compound 1 or agents (docetaxel, paclitaxel, oxaliplatin, cisplatin or carboplatin), or the combination of Compound 1 plus one of the agents, at various doses and schedules as described in tables below. Tumor size and body weight were measured approximately twice a week for the duration of the study. Mice are euthanized when their tumor volume reached 10% of their body weight, or when the average tumor volume of a treatment or control group reached approximately 2000 mm^3. Tumor growth continued to be monitored after the dosing period in some studies. Average tumor volume is reported as a function of time for selected arms of selected studies in the Figures.
(§3) Measurements from day 0 to day 14, day 19, day 21, or day 28 are analyzed as specified in Tables below. All tumor volumes have a value of 1 added to them before log10 transformation. For each animal, the log tumor volume at day 0 is subtracted from the log tumor volume on the subsequent days. This difference vs. time is used to calculate an area under the curve (AUC) for each animal using the trapezoid rule. […] The synergy score for the combination of agents A and B is defined as
(§4) 100*(mean(AUCAB)−mean(AUCA)−mean(AUCB)+mean(AUCctl))/mean(AUCctl):
(§5) where AUCAB, AUCA, AUCB, and AUCctl are the AUC values for animals in the combination group, the A group, the B group, and the control group, respectively. The standard error of the synergy score is computed based on the variation in the AUC values among the animals. […] If the P-value is above 0.05, then the combination is considered to be additive. If the P-value is below 0.05, and the synergy score is less than zero, then the combination is considered to be synergistic.

[2] = system: Calu-6 non-small cell lung cancer xenograft; test: Calu-6 xenograft model, Compound 1 and docetaxel; type: in vivo, nude mice; conditions: for Tumor Volume Day 21: in mm³ (unit assumed)
Experimental: Calu-6 is a non-small cell lung cancer cell-lined derived xenograft model. Nine week old female nude mice (Taconic Farms, Inc) were inoculated subcutaneously in the flank (cell suspension) with 4.0×10^6 Calu-6 cells suspended in serum free MEM. […] Docetaxel (Henry Schein, Inc., Pittsburgh Pa.) is formulated in 0.9% saline and administered by intravenous injection (IV) once weekly (QW) at 5 mg/kg or 10 mg/kg. […] Tumors were measured twice weekly using vernier calipers.

[3] = system: CTG-0159 human lung NSCLC xenograft; test: CTG-0159 xenograft model, Compound 1 and docetaxel; type: in vivo, Mus musculus/nu/nu mice; conditions: for Tumor Volume Day 21: in mm³ (unit assumed)
Experimental: Docetaxel (Henry Schein, Inc., Pittsburgh Pa.) is formulated in 0.9% saline and administered by intravenous injection (IV) once weekly (QW) at 5 mg/kg or 10 mg/kg. […] Tumors were measured twice weekly using vernier calipers.

[4] = system: CTG-0486 human ovarian xenograft; type: in vivo; conditions: for Tumor Volume Day 21: in mm³ (unit assumed)
Text: The CTG-0486 model of human ovarian xenograft model was established from a patient-derived tumor collected during surgery from a person with ovarian cancer (serous adenocarcinoma, metastases to the small bowel). CTG-0486 tumor fragments (approximately 2×2×3 mm^3) are implanted into the subcutaneous space in the right dorsal flank of female Mus musculus/nu/nu mice (age 6-9 weeks, Harlan Laboratories, Madison, Wis., USA) using a 13-gauge trocar needle. When the mean tumor volume reached approximately 260 mm3, the animals were randomized into 8 treatment groups (n=5/group).
[…] The once weekly schedule is also described as every 7 days (Q7D).
as §1, §2, §3, §4, §5

[5] = system: PHTX-02B breast xenograft; test: PHTX-02B xenograft model, Compound 1 and paclitaxel; type: in vivo, SCID-NOD mice
Experimental: (§6) Paclitaxel (Bristol-Myers Squibb Company) is formulated in 0.9% saline and administered by intravenous injection (IV) on every 4 days (Q4D) or once weekly (QW) at 10 and 20 mg/kg. […] Tumors were measured twice weekly using vernier calipers.

[6] = system: CTG-0012 human primary triple negative breast cancer model; test: CTG-0012 xenograft model, Compound 1 and paclitaxel; type: in vivo, Mus musculus/nu/nu mice; conditions: for Tumor Volume Day 21: in mm³ (unit assumed)
Experimental: as §6

## NS(=O)(=O)OC[C@H]1C[C@@H](Nc2ccnc3cc(-c4cccc(SC(F)(F)F)c4)nn23)[C@H](O)[C@@H]1O [Compound 1, ((1R,2R,3S,4R)-2,3-dihydroxy-4-(2-(3-(trifluoromethylthio)phenyl)pyrazolo[1,5-a]pyrimidin-7-ylamino)cyclopentyl)methyl sulfamate]
[1]; 6.25 mg/kg Compound 1 BIWx2 IV
  Volume Tumor Day 14: 1291.5
[1]; 15 mg/kg Compound 1 BIWx2 IV
  Volume Tumor Day 14: 1638.6
[1]; 20 mg/kg Compound 1 BIWx2 IV
  Volume Tumor Day 14: 1406.7
[1]; single agent Compound 1 IV at 20, 15, 6.25 mg/kg BIW
  anti-tumor activity compared to vehicle control: modest to weak anti-tumor activity
[2]; 5 mg/kg Compound 1 BIWx3 IV
  Tumor Volume Day 21: 1302.2
[2]; 10 mg/kg Compound 1 BIWx3 IV
  Tumor Volume Day 21: 1346.4
[2]; 15 mg/kg Compound 1 BIWx3 IV
  Tumor Volume Day 21: 1072.4
[2]; single agent Compound 1 IV at 5, 10 and 20 mg/kg IV BIW
  anti-tumor responses compared to the vehicle control: modest anti-tumor responses
[3]; 6.25 mg/kg Compound 1 BIWx3 IV
  Tumor Volume Day 21: 1618.9
[3]; 15 mg/kg Compound 1 BIWx3 IV
  Tumor Volume Day 21: 2373.2
[3]; 20 mg/kg Compound 1 BIWx3 IV
  Tumor Volume Day 21: 1376.2
[3]; Compound 1 alone at 20, 15, and 6.25 mg/kg IV BIW
  tumor growth: did not inhibit tumor growth
[4]; 6.25 mg/kg Compound 1 BIWx3 SC
  Tumor Volume Day 21: 476.9
[4]; 15 mg/kg Compound 1 BIWx3 SC
  Tumor Volume Day 21: 131.9
[4]; 20 mg/kg Compound 1 BIWx3 SC
  Tumor Volume Day 21: 92.7
[4]; 25 mg/kg Compound 1 BIWx3 SC
  Tumor Volume Day 21: 151.7
[4]; 20 and 25 mg/kg doses of Compound 1, SC BIW
  tolerability: not tolerated
[4]; single agent Compound 1 SC at 6.25, 15, 20 and 25 mg/kg BIW for 3 weeks
  anti-tumor activity compared to vehicle control: modest to strong anti-tumor activity
[5]; 6.25 mg/kg Compound 1 BIWx3 IV, in mm³ (unit assumed)
  Tumor Volume Day 19: 1850.4
[5]; single agent Compound 1 IV at 6.25, and 12.5 mg/kg BIW for 3 weeks
  anti-tumor activity compared to vehicle control: minimal to modest anti-tumor activity
[6]; 6.25 mg/kg Compound 1 BIWx3 IV
  Tumor Volume Day 21: 815
[6]; 15 mg/kg Compound 1 BIWx3 IV
  Tumor Volume Day 21: 185
[6]; 20 mg/kg Compound 1 BIWx3 IV
  Tumor Volume Day 21: 47.4
[6]; single agent Compound 1 IV at 6.25, 15, and 20 mg/kg BIW for 3 weeks
  anti-tumor activity compared to vehicle control: modest to strong anti-tumor activity
